Entries after “also recorded” stand apart in the source; their conditions may differ. Like-named read-outs stand apart in the source and are kept apart here.
Legend:
[1] = test system: apomorphine-induced climbing behaviour; assay: inhibition test of apomorphine-induced climbing behaviour; assay type: in vivo, male Swiss mice; conditions: Mus musculus, 1 h, read-out: Climbing ID50
Protocol: For the practical performance of this experiment, male Swiss mice weighing 22-24 g were used. One week prior to experiment, animals were kept in our facilities at a temperature of 20-22° C. and 12/12 h light-dark cycle, and had free access to food and water. Two hours prior to experiment, the animals were placed in individual cages without access to food.
Animals were administered orally with test drug or 0.25% agar at time 0. After 60 minutes, apomorphine was subcutaneously injected at a dose of 1 mg/kg, and after further 70 minutes the animal's behaviour was assessed. Two additional assessments were performed at 10-min intervals.
(§1) For assessment, each animal was placed on the bottom of a small upright box ([…]). The walls of the box were made of translucent methacrylate except one of the lateral surfaces (7.5 cm wide) which was a 3-mm wire mesh. The position of the animal was scored for 2 minutes according to the following criteria: 0=four paws on the floor; 1=three paws on the floor; 2=two paws on the floor; 3=one paw on the floor; and 4=four paws holding the wire mesh. If an animal keeps several positions within the 2-min observation, the seconds elapsed in each position will be recorded. Finally, mean scoring was calculated.

histamine H1 receptors = molecular target: T1, histamine H1 receptors (Cavia porcellus, UniProt P31389); assay: biochemical; assay type: binding, guinea-pig; conditions: for potency as ligand of H1 receptors versus compound of Example 2' of ES 9600323 / potency as ligand of H1 receptors versus promethazine: in words, from Table 2
T1 construct: incubation of guinea-pig cerebellum membranes; from tissue; host or cells: guinea-pig cerebellum membranes
Protocol: The bound radioactivity was separated by filtration (Whatman GF/B) in a Brandel Harvester. The amount of receptor-bound radioactivity present in the filters was determined using a Packard 1800TR counter. The specific binding was established with a 1 μM concentration of triprolidine.

5-HT2A receptors = molecular target: T2, 5-HT2A receptors (Rattus norvegicus, UniProt P14842); assay: specific binding to 5-HT2A receptors ([3H]ketanserin, rat cortex membrane); conditions: for IC50: [3H]ketanserin 0.5 nM, rat cortex, 30 min, 35° C., pH 7.4; for potency as ligand of 5-HT2A receptors versus compound of Example 2' of ES 9600323: in words, from Table 1
T2 construct: membrane corresponding to 1 mg of rat cortex; from tissue; host or cells: rat cortex membrane

[2] = catalepsy test (cataleptic activity, oral route); conditions: rat
Protocol: as §1

D2 receptors = D2 receptors (Rattus norvegicus, UniProt P61169); assay: specific binding to D2 receptors ([3H]spiperone, rat striatum membrane); conditions: in words, from Table 1
[3] = therapeutic index (catalepsy ED50 / climbing ID50); conditions: for selectivity ratio: in vivo, po; for therapeutic index versus compound of Example 2' of ES 9600323 and haloperidol: in words, from Table 3
Protocol: as §1

[4] = oral, male Swiss mice, apomorphine 1 mg/kg s.c. after 60 minutes

T1 sequence (P31389 whole entry): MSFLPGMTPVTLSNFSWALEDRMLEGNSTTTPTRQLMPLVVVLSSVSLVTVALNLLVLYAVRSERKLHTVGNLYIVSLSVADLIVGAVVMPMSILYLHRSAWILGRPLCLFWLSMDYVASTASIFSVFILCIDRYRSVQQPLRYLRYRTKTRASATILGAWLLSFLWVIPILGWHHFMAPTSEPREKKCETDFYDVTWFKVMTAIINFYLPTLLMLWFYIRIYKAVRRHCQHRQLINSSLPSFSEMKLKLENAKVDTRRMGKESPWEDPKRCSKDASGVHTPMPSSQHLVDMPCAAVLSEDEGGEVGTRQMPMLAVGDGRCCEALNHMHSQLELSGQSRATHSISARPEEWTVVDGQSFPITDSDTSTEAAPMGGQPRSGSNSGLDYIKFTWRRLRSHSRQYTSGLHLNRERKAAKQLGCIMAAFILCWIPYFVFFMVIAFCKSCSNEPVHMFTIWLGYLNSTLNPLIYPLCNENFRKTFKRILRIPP
T2 sequence (P14842 whole entry): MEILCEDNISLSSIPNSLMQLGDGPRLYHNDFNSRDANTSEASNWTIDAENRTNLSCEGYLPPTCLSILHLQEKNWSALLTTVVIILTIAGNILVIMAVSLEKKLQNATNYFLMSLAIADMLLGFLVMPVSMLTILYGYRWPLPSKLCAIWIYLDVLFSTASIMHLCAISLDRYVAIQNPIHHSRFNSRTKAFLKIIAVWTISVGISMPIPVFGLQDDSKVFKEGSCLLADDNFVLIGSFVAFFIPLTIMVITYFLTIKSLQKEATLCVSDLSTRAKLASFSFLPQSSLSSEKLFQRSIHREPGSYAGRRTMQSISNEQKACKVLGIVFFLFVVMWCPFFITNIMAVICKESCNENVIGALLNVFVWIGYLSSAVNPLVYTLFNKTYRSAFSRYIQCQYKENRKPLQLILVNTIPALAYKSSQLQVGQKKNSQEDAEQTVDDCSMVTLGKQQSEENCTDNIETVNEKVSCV
Chain of D2 receptors (P61169 whole entry): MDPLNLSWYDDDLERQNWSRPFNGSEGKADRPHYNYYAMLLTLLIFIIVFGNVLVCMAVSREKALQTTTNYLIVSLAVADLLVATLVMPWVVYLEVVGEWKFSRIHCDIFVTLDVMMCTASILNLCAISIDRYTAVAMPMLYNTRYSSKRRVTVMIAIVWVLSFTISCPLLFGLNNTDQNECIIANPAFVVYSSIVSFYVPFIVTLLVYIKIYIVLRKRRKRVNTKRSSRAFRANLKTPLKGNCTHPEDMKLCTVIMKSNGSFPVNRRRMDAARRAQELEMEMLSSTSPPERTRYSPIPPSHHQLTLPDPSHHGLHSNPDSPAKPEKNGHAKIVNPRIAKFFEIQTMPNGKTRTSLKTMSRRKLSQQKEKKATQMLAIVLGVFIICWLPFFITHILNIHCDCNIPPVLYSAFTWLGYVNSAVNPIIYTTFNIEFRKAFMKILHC

Row | SMILES | IC50 (5-HT2A receptors) [nM] | TD50 ([2]; in vivo) [mg/kg] | potency as ligand of 5-HT2A receptors versus compound of Example 2' of ES 9600323 (5-HT2A receptors) | potency as ligand of D2 receptors versus compound of Example 2' of ES 9600323 (D2 receptors) | ED50 [1, 4] [mg/kg] | selectivity ratio [3] | therapeutic index versus compound of Example 2' of ES 9600323 and haloperidol [3] | IC50 (histamine H1 receptors) [nM] | potency as ligand of H1 receptors versus compound of Example 2' of ES 9600323 (histamine H1 receptors) | TD50 ([2]; po) [mg/kg] | other results
1 | O=c1c(CO)coc2cc(OCCCN3CCC(c4noc5cc(F)ccc45)CC3)ccc12 [Ex. 2' (ES 9600323), reference compound] | 3.08 | 3.8 |  |  |  |  |  |  |  |  | ED50 ([1]; po): 0.25 mg/kg; IC50 (histamine H1 receptors; [3H]-pyrilamine 1 nM, guinea-pig cerebellum, 25° C., 60 minutes, read-out: IC50, H1 receptors): 1.2 nM
2 | O=Cc1coc2cc(OCCCN3CCC(c4noc5cc(F)ccc45)CC3)ccc2c1=O [Example 1, 7-[3-[4-(6-fluorobenzo[d]isoxazole-3-yl)piperidine-1-yl]propoxy]-3-formyl-chromen-4-one] | 2.11 |  | more potent | more potent |  |  |  |  |  |  | 
3 | Cl.O=C(O)c1coc2cc(OCCCN3CCC(c4noc5cc(F)ccc45)CC3)ccc2c1=O [Example 2, 7-[3-[4-(6-fluorobenzo[d]isoxazole-3-yl)piperidin-1-yl]propoxy]-4-oxochromene-3-carboxylic acid hydrochloride] | 0.594 |  | more potent | more potent |  |  |  |  |  |  | 
4 | COCc1coc2cc(OCCCN3CCC(c4noc5cc(F)ccc45)CC3)ccc2c1=O.Cl [Example 3, 7-[3-[4-(6-fluorobenzo[d]isoxazole-3-yl)piperidin-1-yl]propoxy]-3-methoxymethyl-chromen-4-one hydrochloride] |  |  |  |  | 0.21 | 32.3 | higher therapeutic index | 0.339 | more potent | 6.79 | potency as ligand of H1 receptors versus promethazine (histamine H1 receptors; hydrochloride): of the same order as promethazine; also recorded: greater than that of standard promethazine
5 | Cl.O=c1cc(CO)oc2cc(OCCCN3CCC(c4noc5cc(F)ccc45)CC3)ccc12 [Example 6, 7-[3-[4-(6-fluorobenzo[d]isoxazole-3-yl)piperidin-1-yl]propoxy]-2-(hydroxymethyl)-chromen-4-one hydrochloride] |  |  |  |  | 5.87 | > 17 | higher therapeutic index | 1.01 | more potent | > 100 | potency as ligand of H1 receptors versus promethazine (histamine H1 receptors): of the same order as promethazine
6 | O=C(CCCN1CCC(O)(c2ccc(Cl)cc2)CC1)c1ccc(F)cc1 [Haloperidol, haloperidol, reference compound] |  | 2 |  |  | 0.32 |  |  |  |  |  | 
